Target: T1, Dihydrofolate reductase (Bos taurus, UniProt P00376)
T1 sequence (P00376 whole entry): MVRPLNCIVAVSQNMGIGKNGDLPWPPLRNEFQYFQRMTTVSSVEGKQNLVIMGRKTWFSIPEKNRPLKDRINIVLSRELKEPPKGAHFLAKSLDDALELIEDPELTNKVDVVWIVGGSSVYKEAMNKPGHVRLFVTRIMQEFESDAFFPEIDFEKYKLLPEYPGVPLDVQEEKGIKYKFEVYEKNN
Experiment: Inhibition Assay
Text: Inhibition activity using bovine dihydrofolate reductase (DHFR).

First: NC1=NC2(CCCCC2)N(OCCc2ccccc2)C(N)=N1 [1,3,5-Triazaspiro[5.5]undeca-1,3-diene-2,4-diamine, IIc]
Second: NC1=NC2(CCCC2)N(OCCc2ccccc2)C(N)=N1 [6,8,10-Traiazaspiro[4.5]deca-6,8-diene-7,9-diamine, Ic]
The IC50 of the first is 3.3-fold lower: 9.4 nM for the first, 31 nM for the second. The first is the more potent here.

Going from NC1=NC2(CCCCC2)N(OCc2ccccc2)C(N)=N1 [1,3,5-Triazaspiro[5.5]undeca-1,3-diene-2,4-diamine, IIb] to NC1=NC2(CCCCC2)N(OCCCc2ccccc2)C(N)=N1 [1,3,5-Triazaspiro[5.5]undeca-1,3-diene-2,4-diamine, IId], the IC50 falls from 1790 nM to 31.9 nM (56-fold). The second is the more potent here.

Compared with NC1=NC2(CCCC2)N(OCCCCOc2ccccc2)C(N)=N1 [6,8,10-Traiazaspiro[4.5]deca-6,8-diene-7,9-diamine, Ig], NC1=NC2(CCCCC2)N(OCCCCOc2ccccc2)C(N)=N1 [1,3,5-Triazaspiro[5.5]undeca-1,3-diene-2,4-diamine, IIg] is 3.7-fold higher in IC50: 42.2 nM for the first, 155 nM for the second. The first is the more potent here.

Compared with NC1=NC2(CCCCC2)N(OCCCOc2ccccc2)C(N)=N1, NC1=NC2(CCCC2)N(OCCCOc2ccccc2)C(N)=N1 is 3-fold lower in IC50: 6.9 nM for the first, 2.3 nM for the second. The second is the more potent here.

Going from CN(CCCON1C(N)=NC(N)=NC12CCCC2)c1ccccc1 [6,8,10-Traiazaspiro[4.5]deca-6,8-diene-7,9-diamine, If] to CN(CCCON1C(N)=NC(N)=NC12CCCCC2)c1ccccc1 [1,3,5-Triazaspiro[5.5]undeca-1,3-diene-2,4-diamine, IIf], the IC50 rises from 14.9 nM to 41.4 nM (2.8-fold). The first is the more potent here.

NC1=NC2(CCCCC2)N(Cc2ccccc2)C(N)=N1 [1,3,5-Triazaspiro[5.5]undeca-1,3-diene-2,4-diamine, IIa] and NC1=NC2(CCCC2)N(Cc2ccccc2)C(N)=N1 [6,8,10-Traiazaspiro[4.5]deca-6,8-diene-7,9-diamine, Ia] cannot be ordered by IC50: greater than 50000 nM for the first, greater than 50000 nM for the second.

NC1=NC2(CCCC2)N(OCCCc2ccccc2)C(N)=N1 [6,8,10-Traiazaspiro[4.5]deca-6,8-diene-7,9-diamine, Id] was tested, and the IC50 was 20.1 nM.

From BindingDB's records for doi:10.1111/j.1747-0285.2009.00860.x (National University of Singapore, 2009)
